# Key:
# Assay type in all cases: functional
# Details in all cases: time 18-20 hrs
# Escherichia coli [1] = experiment: Antibacterial activity against Escherichia coli ATCC 35218 assessed as inhibition of bacterial growth measured after 18 to 20 hrs by broth microdilution method
# Escherichia coli [2] = experiment: Antibacterial activity against Escherichia coli 14-2 assessed as inhibition of bacterial growth measured after 18 to 20 hrs by broth microdilution method
# Escherichia coli [3] = experiment: Antibacterial activity against Escherichia coli 14-4 assessed as inhibition of bacterial growth measured after 18 to 20 hrs by broth microdilution method
# Klebsiella pneumoniae [4] = experiment: Antibacterial activity against Klebsiella pneumoniae 15-1 assessed as inhibition of bacterial growth measured after 18 to 20 hrs by broth microdilution method
# Klebsiella pneumoniae [5] = experiment: Antibacterial activity against Klebsiella pneumoniae 15-4 assessed as inhibition of bacterial growth measured after 18 to 20 hrs by broth microdilution method
# Klebsiella pneumoniae [6] = experiment: Antibacterial activity against Klebsiella pneumoniae 15-5 assessed as inhibition of bacterial growth measured after 18 to 20 hrs by broth microdilution method
# Acinetobacter baumannii [7] = experiment: Antibacterial activity against Acinetobacter baumannii 17-2 assessed as inhibition of bacterial growth measured after 18 to 20 hrs by broth microdilution method
# Acinetobacter baumannii [8] = experiment: Antibacterial activity against Acinetobacter baumannii 17-8 assessed as inhibition of bacterial growth measured after 18 to 20 hrs by broth microdilution method
# Pseudomonas aeruginosa [9] = experiment: Antibacterial activity against Pseudomonas aeruginosa 17-1 assessed as inhibition of bacterial growth measured after 18 to 20 hrs by broth microdilution method
# Pseudomonas aeruginosa [10] = experiment: Antibacterial activity against Pseudomonas aeruginosa 19-5 assessed as inhibition of bacterial growth measured after 18 to 20 hrs by broth microdilution method
MIC (Escherichia coli [1]) [µg/mL],MIC (Escherichia coli [2]) [µg/mL],MIC (Escherichia coli [3]) [µg/mL],MIC (Klebsiella pneumoniae [4]) [µg/mL],MIC (Klebsiella pneumoniae [5]) [µg/mL],MIC (Klebsiella pneumoniae [6]) [µg/mL],MIC (Acinetobacter baumannii [7]) [µg/mL],MIC (Acinetobacter baumannii [8]) [µg/mL],MIC (Pseudomonas aeruginosa [9]) [µg/mL],MIC (Pseudomonas aeruginosa [10]) [µg/mL],SMILES
0.5,4,2,16,32,16,8,2,64,> 64,Cc1nc(-c2ccc(C(C)(C)C)cc2)ncc1CN[C@@H](CCN)C(=O)N(C)[C@@H]1C(=O)N[C@@H](C)C(=O)N[C@H](C(=O)NCC#N)Cc2ccc(OCCN)c(c2)-c2cc1ccc2OCCN.O=C(O)C(F)(F)F.O=C(O)C(F)(F)F.O=C(O)C(F)(F)F.O=C(O)C(F)(F)F
≤ 0.03,0.125,0.125,0.125,0.25,0.25,1,0.5,8,4,Cc1nc(-c2ccc(CSSC3CCC3)cc2)ncc1C(=O)N[C@@H](CCN)C(=O)N(C)[C@@H]1C(=O)N[C@@H](C)C(=O)N[C@H](C(=O)NCC#N)Cc2ccc(OCCN)c(c2)-c2cc1ccc2OCCN.O=C(O)C(F)(F)F.O=C(O)C(F)(F)F.O=C(O)C(F)(F)F.O=C(O)C(F)(F)F
0.25,0.5,1,1,1,1,1,1,4,4,Cc1nc(-c2ccc(CSSCC[Si](C)(C)C)cc2)ncc1C(=O)N[C@@H](CCN)C(=O)N(C)[C@@H]1C(=O)N[C@@H](C)C(=O)N[C@H](C(=O)NCC#N)Cc2ccc(OCCN)c(c2)-c2cc1ccc2OCCN.O=C(O)C(F)(F)F.O=C(O)C(F)(F)F.O=C(O)C(F)(F)F.O=C(O)C(F)(F)F
0.06,0.125,0.125,0.25,1,0.25,8,2,32,64,Cc1nc(-c2ccc(C3SCCS3)cc2)ncc1C(=O)N[C@@H](CCN)C(=O)N(C)[C@@H]1C(=O)N[C@@H](C)C(=O)N[C@H](C(=O)NCC#N)Cc2ccc(OCCN)c(c2)-c2cc1ccc2OCCN.O=C(O)C(F)(F)F.O=C(O)C(F)(F)F.O=C(O)C(F)(F)F.O=C(O)C(F)(F)F
64,64,64,32,64,64,> 64,> 64,> 64,> 64,Cc1nc(-c2ccc(C(C)(C)C)cc2)ncc1C(=O)N[C@@H](CCN)C(=O)N(C)[C@@H]1C(=O)N[C@@H](C)C(=O)N[C@H](NC(=O)CC#N)Cc2ccc(OCCN)c(c2)-c2cc1ccc2OCCN.O=C(O)C(F)(F)F.O=C(O)C(F)(F)F.O=C(O)C(F)(F)F.O=C(O)C(F)(F)F
≤ 0.03,0.06,≤ 0.03,0.25,0.25,0.25,0.5,0.5,4,2,CCCCCSSCc1ccc(-c2ncc(C(=O)N[C@@H](CCN)C(=O)N(C)[C@@H]3C(=O)N[C@@H](C)C(=O)N[C@H](C(=O)NCC#N)Cc4ccc(OCCN)c(c4)-c4cc3ccc4OCCN)c(C)n2)cc1.O=C(O)C(F)(F)F.O=C(O)C(F)(F)F.O=C(O)C(F)(F)F.O=C(O)C(F)(F)F
≤ 0.03,0.06,0.125,≤ 0.03,0.06,≤ 0.03,8,2,> 64,> 64,Cc1nc(-c2ccc(C(C)(C)C)cc2)ncc1C(=O)N[C@@H](CCN)C(=O)N(C)[C@@H]1C(=O)N[C@@H](C)C(=O)N[C@H](C(=O)OCC=O)Cc2ccc(OCCN)c(c2)-c2cc1ccc2OCCN.Cl.Cl.Cl.Cl
0.5,1,0.5,2,2,1,32,8,> 64,> 64,Cc1nc(-c2ccc(C(C)(C)C)cc2)ncc1C(=O)N[C@@H](CCN)C(=O)N(C)[C@@H]1C(=O)N[C@@H](C)C(=O)N[C@H](C(=O)NNCC#N)Cc2ccc(OCCN)c(c2)-c2cc1ccc2OCCN.Cl.Cl.Cl.Cl
4,8,8,16,16,16,16,16,> 64,> 64,Cc1nc(-c2ccc(C(C)(C)C)cc2)ncc1C(=O)N[C@@H](CCN)C(=O)N(C)[C@@H]1C(=O)N[C@@H](C)C(=O)N[C@H](C(=O)CC#N)Cc2ccc(OCCN)c(c2)-c2cc1ccc2OCCN.O=C(O)C(F)(F)F.O=C(O)C(F)(F)F.O=C(O)C(F)(F)F.O=C(O)C(F)(F)F
32,64,64,64,64,64,> 64,> 64,> 64,> 64,Cc1nc(-c2ccc(C(C)(C)C)cc2)ncc1C(=O)N[C@@H](CCN)C(=O)N(C)[C@@H]1C(=O)N[C@@H](C)C(=O)N[C@H](NC(=O)NC#N)Cc2ccc(OCCN)c(c2)-c2cc1ccc2OCCN.O=C(O)C(F)(F)F.O=C(O)C(F)(F)F.O=C(O)C(F)(F)F.O=C(O)C(F)(F)F
4,16,4,8,16,16,> 64,64,> 64,> 64,Cc1nc(-c2ccc(C(C)(C)C)cc2)ncc1C(=O)N[C@@H](CCN)C(=O)N(C)[C@@H]1C(=O)N[C@@H](C)C(=O)N[C@H](C(=O)NN(C)CC#N)Cc2ccc(OCCN)c(c2)-c2cc1ccc2OCCN.Cl.Cl.Cl.Cl
0.5,4,1,0.25,1,0.5,64,16,64,64,CSC(=O)CNC(=O)[C@@H]1Cc2ccc(OCCN)c(c2)-c2cc(ccc2OCCN)[C@H](N(C)C(=O)[C@H](CCN)NC(=O)c2cnc(-c3ccc(C(C)(C)C)cc3)nc2C)C(=O)N[C@@H](C)C(=O)N1.O=C(O)C(F)(F)F.O=C(O)C(F)(F)F.O=C(O)C(F)(F)F.O=C(O)C(F)(F)F
0.06,0.125,0.125,0.25,0.25,0.25,2,1,8,8,Cc1nc(-c2ccc(CSSCCC(F)(F)F)cc2)ncc1C(=O)N[C@@H](CCN)C(=O)N(C)[C@@H]1C(=O)N[C@@H](C)C(=O)N[C@H](C(=O)NCC#N)Cc2ccc(OCCN)c(c2)-c2cc1ccc2OCCN.O=C(O)C(F)(F)F.O=C(O)C(F)(F)F.O=C(O)C(F)(F)F.O=C(O)C(F)(F)F
16,16,16,> 64,> 64,> 64,64,8,> 64,> 64,Cc1nc(-c2ccc(C(C)(C)C)cc2)ncc1CC(=O)N[C@@H](CCN)C(=O)N(C)[C@@H]1C(=O)N[C@@H](C)C(=O)N[C@H](C(=O)NCC#N)Cc2ccc(OCCN)c(c2)-c2cc1ccc2OCCN.O=C(O)C(F)(F)F.O=C(O)C(F)(F)F.O=C(O)C(F)(F)F.O=C(O)C(F)(F)F

# From ChEMBL document CHEMBL5518248, “Design, Synthesis, and Biological Evaluation of Novel Arylomycins against Multidrug-Resistant Gram-Negative Bacteria” (J Med Chem, 2024)
